From patent publication US20130096163A1, “Injectable dosage form of flupirtine” (AWD.PHARMA GMBH & CO. KG, priority 2010, published 2013)
Where two headings read alike, the source gives them in different places.

Assay: Solubility of flupirtine salts in water (stirring a suspension, filtration, HPLC-UV)
Format: physicochemical
Procedure: The solubility of the salt used is determined by stirring a suspension of a defined quantity of the corresponding salt for 30 minutes in a closed container in fully desalinated water at 25° C. The undissolved portion of the salt is filtered off, the filtrate is diluted to a suitable concentration range, and the flupirtine concentration of the solution determined using HPLC-UV (high performance liquid chromatography with UV-detection).
In a preferred embodiment of the invention, the flupirtine salt contained in the lyophilisate is selected from flupirtine mesilate, flupirtine besilate and/or flupirtine phosphate. Table 1shows the respective solubility of each of these flupirtine salts in water at 25° C. The solubility has been determined as described above.

Molecule	Solubility (in fully desalinated water at 25° C., suspension stirred 30 minutes, filtrate by HPLC-UV) [mg/mL]	Solubility [mg/mL]
CCOC(=O)Nc1ccc(NCc2ccc(F)cc2)nc1N.O=S(=O)(O)c1ccccc1 [Flupirtine besilate]	2.8	–
Flupirtine mesilate	–	16.8
Flupirtine phosphate	–	13.6
